The source made the active and inactive calls.
Columns and labels:
Saccharomyces cerevisiae = test: Antimicrobial activity against Saccharomyces cerevisiae IFO 0203 after 24 hrs by broth microdilution method; type: functional, organism-based
Rhizopus arrhizus = test: Antimicrobial activity against Rhizopus oryzae IFO 4766 at <6.55 uM after 24 hrs by broth microdilution method; type: functional, organism-based
Fusarium oxysporum [1] = test: Antimicrobial activity against Fusarium oxysporum IFO 7152 at <6.55 uM after 24 hrs by broth microdilution method; type: functional, organism-based
Fusarium oxysporum [2] = test: Antimicrobial activity against Fusarium oxysporum NBRC 30700 after 24 hrs by broth microdilution method; type: functional; details: NBRC 30700, 24 h
Mucor mucedo [3] = test: Effect on cell wall re-generation in Mucor mucedo IFO 7684 spheroplasts under hyperosmotic condition at 0.026 uM after 18 hrs by microscopic analysis; type: functional
Mucor mucedo [4] = test: Antimicrobial activity against Mucor mucedo IFO 7684 at <6.55 uM after 24 hrs by broth microdilution method; type: functional, organism-based
Mucor mucedo [5] = test: Inhibition of DNA synthesis in Mucor mucedo IFO 7684 assessed as [8-14C]-adenine uptake into acid-insoluble fractions at 0.13 uM after 25 mins by liquid scintillation counting; type: functional; details: IFO 7684, 25 min
Pseudomonas aeruginosa = test: Antimicrobial activity against Pseudomonas aeruginosa IFO 3080 after 24 hrs by broth microdilution method; type: functional, organism-based
[6] = Binding affinity to chitin at 6.55 uM after 30 mins by HPLC analysis
Mucor mucedo [7] = test: Antifungal activity against Mucor mucedo IFO 7684 under hypoosmotic shock assessed as increase of fragility of organism at 0.026 uM after 24 hrs measured after distilled water treatment for 10 mins by microscopic analysis; type: functional, organism-based
Fusarium oxysporum [8] = test: Antimicrobial activity against Fusarium oxysporum NBRC 5942 after 24 hrs by broth microdilution method; type: functional; details: NBRC 5942, 24 h
Mucor mucedo [9] = test: Inhibition of chitin synthase in Mucor mucedo IFO 7684 assessed as incorporation of GlcNAc from [14C]-UDP-GlcNAc into acid-insoluble fractions at 4 ug/ml after 55 mins by liquid scintillation counting
Mucor mucedo [10] = test: Induction of morphological changes in Mucor mucedo IFO 7684 assessed as abnormal hyphae branching at MIC after 24 hrs by microscopic analysis; type: functional, organism-based
Fusarium oxysporum [11] = test: Antimicrobial activity against Fusarium oxysporum NBRC 30700 at <6.55 uM after 24 hrs by broth microdilution method; type: functional, organism-based
Fusarium oxysporum [12] = test: Binding affinity to cell wall polysaccharides in Fusarium oxysporum NBRC 5942 at 6.55 uM after 30 mins by HPLC analysis
Mucor mucedo [13] = test: Inhibition of RNA synthesis in Mucor mucedo IFO 7684 assessed as [8-14C]-adenine uptake into acid-insoluble fractions at 0.13 uM after 25 mins by liquid scintillation counting; type: functional, organism-based
Fusarium solani [14] = test: Antimicrobial activity against Fusarium solani NBRC 5899 at <6.55 uM after 24 hrs by broth microdilution method; type: functional, organism-based
Mucor mucedo [15] = test: Induction of morphological changes in Mucor mucedo IFO 7684 assessed as thickening of hyphae at MIC after 24 hrs by microscopic analysis; type: functional, organism-based
Fusarium solani [16] = test: Antimicrobial activity against Fusarium solani NBRC 8505 at <6.55 uM after 24 hrs by broth microdilution method; type: functional, organism-based
Fusarium solani [17] = test: Antimicrobial activity against Fusarium solani NBRC 8505 after 24 hrs by broth microdilution method; type: functional; details: NBRC 8505, 24 h
Micrococcus luteus = test: Antimicrobial activity against Micrococcus luteus IFO 3333 after 24 hrs by broth microdilution method; type: functional, organism-based
[18] = test system: Schizosaccharomyces pombe; test: Antimicrobial activity against Schizosaccharomyces pombe IFO 0342 after 24 hrs by broth microdilution method; type: functional, organism-based
Mucor mucedo [19] = test: Induction of morphological changes in Mucor mucedo IFO 7684 assessed as thickening of hyphae at 0.026 uM after 24 hrs by microscopic analysis in presence of 100 uM of PKA activator dbcAMP; type: functional, organism-based
Neurospora sitophila = test: Antimicrobial activity against Neurospora sitophila DSM 1130 at <6.55 uM after 24 hrs by broth microdilution method; type: functional
[20] = test system: Fusarium sporotrichioides; test: Antimicrobial activity against Fusarium sporotrichioides NBRC 33236 at <6.55 uM after 24 hrs by broth microdilution method; type: functional
Fusarium oxysporum [21] = test: Antifungal activity against Fusarium oxysporum NBRC 5942 under hypoosmotic shock assessed as increase of fragility of organism at 0.026 uM after 24 hrs measured after distilled water treatment for 10 mins by microscopic analysis; type: functional, organism-based
Mucor mucedo [22] = test: Induction of morphological changes in Mucor mucedo IFO 7684 assessed as thickening of hyphae at 0.026 uM after 24 hrs by microscopic analysis in presence of 100 uM of PKA inhibitor H8; type: functional, organism-based
Fusarium oxysporum [23] = test: Antimicrobial activity against Fusarium oxysporum IFO 7152 after 24 hrs by broth microdilution method; type: functional; details: IFO 7152, 24 h
Aspergillus fumigatus = test: Antimicrobial activity against Aspergillus fumigatus IFO 5840 at <6.55 uM after 24 hrs by broth microdilution method; type: functional, organism-based

C=C1NC(=O)[C@H]2CSC(=N2)c2csc(n2)-c2ccc3c(n2)[C@H](C)NC(=O)[C@@H]2CCCN2C(=O)/C(=C/C)NC(=O)CNC(=O)[C@H](CCCNC(=N)N)NC(=O)C(C)(NC(=O)/C(=C/C)NC(=O)C2CSC(=N2)[C@H](CC(N)=O)NC3=O)SC[C@@H](C(=O)O)NC(=O)[C@H]2CSC(=N2)c2csc(n2)-c2csc1n2 [CYCLOTHIAZOMYCIN B1]
active: Activity [6] | Activity (Mucor mucedo [7]) | Activity (Mucor mucedo [10]) | Activity (Mucor mucedo [15]) | Activity (Mucor mucedo [19]) | Activity (Fusarium oxysporum [21]) | Activity (Mucor mucedo [22])
0.5 µg/mL: MIC (Fusarium oxysporum [8])
0.25 µg/mL: MIC (Fusarium oxysporum [2]) | MIC (Fusarium solani [17]) | MIC (Fusarium oxysporum [23])
inactive: Activity (Saccharomyces cerevisiae) | Activity (Rhizopus arrhizus) | Activity (Fusarium oxysporum [1]) | Activity (Mucor mucedo [3]) | Activity (Mucor mucedo [4]) | Activity (Pseudomonas aeruginosa) | inhibition (Mucor mucedo [9]) | Activity (Fusarium oxysporum [11]) | Activity (Fusarium oxysporum [12]) | inhibition (Mucor mucedo [13]) | Activity (Fusarium solani [14]) | Activity (Fusarium solani [16]) | Activity (Micrococcus luteus) | Activity [18] | Activity (Neurospora sitophila) | Activity [20] | Activity (Aspergillus fumigatus)
84%: inhibition at 0.13 µM (Mucor mucedo [5])
